What was measured:
NF-κB = test: Western blot on the mesencephalic region: NF-κB; parameters: species or system male adult CD1 mice
Method: (§1) In vitro testing was then carried out on the mesencephalic region, with respect to iNOS production, IkB-α, NF-κB, Bax, and Bcl2. Western blot analyses and corresponding bar graphs are presented in FIG. 5 (iNOS production, optical density normalized to β-actin), FIG. 6 (IkB-α, also normalized to β-actin), FIG. 7 (NF-κB, optical density normalized to lamin A/C), FIG. 8 (Bax, normalized to β-actin), and FIG. 9 (Bcl2, normalized to β-actin). In each case, the effect of hydroxytyrosol is marked.

iNOS production = test: Western blot on the mesencephalic region: iNOS; parameters: species or system male adult CD1 mice
Method: as §1

[1] = even at high concentrations; Auñon-Calles et al. (2013); cited from earlier work
[2] = tested on: cells from the mesencephalic region; test: Histology of cells from the mesencephalic region, rotenone mouse model; format: in vivo, male adult CD1 mice; settings: hydroxytyrosol-treated relative to rotenone-only ("vehicle") group
IkB-α = test: Western blot on the mesencephalic region: IkB-α; parameters: species or system male adult CD1 mice
Method: as §1

Bcl2 = test: Western blot on the mesencephalic region: Bcl2; parameters: species or system male adult CD1 mice
Method: as §1

Bax = test: Western blot on the mesencephalic region: Bax; parameters: species or system male adult CD1 mice
Method: as §1

endothelial cell = test: Endothelial cell based assay (pro-/anti-oxidant effect)
Excerpt: Without wishing to be bound by theory, it may be postulated that the removal of hydroxytyrosol from its original matrix and natural environment can result in adverse effects, and that at least some of the naturally occurring associated polyphenols are necessary to include in a therapeutic hydroxytyrosol formulation.

[3] = tested on: rotenone-induced PD state; test: Pole test (body coordination and balance) in rotenone mouse model of PD; format: in vivo, male adult CD1 mice; settings: hydroxytyrosol 10 mg/kg/day plus rotenone 5 mg/kg/day i.p., 28 days, relative to rotenone only
[4] = tested on: subject diagnosed with Parkinson's disease; test: Case of a Parkinson's subject given Olivenol Plus capsules (Example 1); format: in vivo, human; settings: orally administered L-dopa for over three months before the polyphenol treatment, one subject
Method: The subject was given an olive polyphenol composition orally, in the form of two Olivenol Plus® capsules administered three times per day. As each capsule contains 12 mg olive polyphenols, including about 5 mg hydroxytyrosol, the daily dose given to the subject was 72 mg olive polyphenols, including 30 mg hydroxytyrosol.

| Structure (SMILES) | NF-κB, optical density normalized to lamin A/C, FIG. 7 (NF-κB) | iNOS production, optical density normalized to β-actin, FIG. 5 (iNOS production) | toxicity [1] | histologic injury score, FIG. 4 [2] | IkB-α, normalized to β-actin, FIG. 6 (IkB-α) | Bcl2, normalized to β-actin, FIG. 9 (Bcl2) | Bax, normalized to β-actin, FIG. 8 (Bax) | pro-oxidant / anti-oxidant effect (endothelial cell) | pole test time to turn (orientation time), FIG. 1B [3] | pole test total time (orientation and complete descent), FIG. 1A [3] | improvement after treatment [4] |
| --- | --- | --- | --- | --- | --- | --- | --- | --- | --- | --- | --- |
| OCCc1ccc(O)c(O)c1 [hydroxytyrosol, 4-(hydroxyethyl)-1,2-benzene diol] | marked | marked | no toxicity has been detected | significantly reduces | marked | marked | marked | pro-oxidant effect | significantly lowers | significantly lowers | – |
| N[C@@H](Cc1ccc(O)c(O)c1)C(=O)O [L-dopa] | – | – | – | – | – | – | – | – | – | – | no noticeable improvement |

Reference: US20170367995A1, “TREATMENT OF EARLY STAGE PARKINSON'S DISEASE WITH A HYDROXYTYROSOL-CONTAINING POLYPHENOL FORMULATION” (Allevium Therapeutics, Inc., priority 2016, published 2017)
